Results on nine molecules are retold here after US20150031892A1, “SPHINGOLIPID METABOLITE MIMETICS” (Zhejiang University, priority 2012, published 2015).

Common to all, as to type: cell-based
Experiment [1] concerns HepG2. Kind of experiment: MTT cytotoxicity assay, HepG2 (liver cancer). The settings on record: Homo sapiens. As for the experimental part: (§1) Cell survival after exposure to the sphingolipid metabolite mimetics was examined by MTT cytotoxicity assay. HepG2, A431, HeLa, MCF-7 and SA cells (7000 cells/well) were seeded in each well of a 96-well plate for 24 h. New medium was added to give final concentrations of 0 to 200 μM of the sphingolipid metabolite mimetics. Then, 50 μl of 1 mg/ml 3-(4,5-dimethylthiazol-2-yl)-2,5-diphenyltetrazolium bromide (MTT, Sigma-Aldrich Chemical) was added to each well for 4 h incubation at 37° C. The purple formazan formed was then solubilized by DMSO and absorbance at 570 nm was read by a microplate reader (Molecular Devices, Sunnyvale, Calif.).
For orientation: Tetrazolium dyes change colour on reduction, which living cells bring about.

In experiment [2] the test system is A431. Put plainly: MTT cytotoxicity assay, A431 (squamous carcinoma). The settings on record: Homo sapiens, A-431. The method, then:
as §1

Experiment [3] deals with SA. Put plainly: MTT cytotoxicity assay, SA (pancreatic cancer as headed). As for the experimental part: as §1
Experiment [4] concerns MCF-7. Put plainly: MTT cytotoxicity assay, MCF-7 (breast cancer). As to conditions: Homo sapiens, MCF7; Breast Cancer MCF-7, MTT. The method, then: as §1
Experiment [5] concerns SiHa. Put plainly: MTT cytotoxicity assay, SiHa (ovarian cancer as headed). The settings on record: Homo sapiens, Cervical Cancer SiHa.
Experiment [6] deals with SW620. Kind of experiment: MTT cytotoxicity assay, SW620 (colon cancer). As to conditions: Homo sapiens, SW-620.
Experiment [7] deals with multiple types of cancer cells. Put plainly: MTT cytotoxicity, statements over several cancer cell lines. The settings on record: for direct anti-cancer cell activity: summary statement. The method, then:
as §1

Experiment [8] concerns SW620 cells. Put plainly: Drug sensitivity MTT assay with TRAIL, SW620. Set-up: scale not given here. The settings on record: for NZJU alone mean value (sensitivity, growth inhibition): drug alone (19-100 μM; TRAIL 100 ng/ml); for NZJU alone mean value (sensitivity, growth inhibition) / combine mean value (sensitivity, growth inhibition): 48 h; for Enhanced mean value: enhancement due to co-administration with TRAIL; for combine mean value (sensitivity, growth inhibition): mimetic at the dose of its row combined with TRAIL 100 ng/ml. As for the experimental part:
(§2) Cell survival after exposure to the anti-tumor agents was examined by MTT cytotoxicity assay. Cells were seeded in each well of a 96-well plate for 24 h. After incubation with various concentrations of compounds, TRAIL, or both for 48 h, the medium was discarded. Then, 50 μl of 1 mg/ml 3-(4,5-dimethylthiazol-2-yl)-2,5-diphenyltetrazolium bromide (MTT, Sigma-Aldrich Chemical) was added to each well for 4 h incubation at 37° C. The purple formazan formed was then solubilized by DMSO and absorbance at 570 nm was read by a microplate reader (Molecular Devices, Sunnyvale, Calif.).

The subject of experiment [9] is MCF-7 cells. Kind of experiment: Drug sensitivity MTT assay with TRAIL, MCF-7. Set-up: scale not given here. As to conditions: for NZJU alone mean value (sensitivity, growth inhibition): drug alone (19-100 μM; TRAIL 100 ng/ml); for NZJU alone mean value (sensitivity, growth inhibition) / combine mean value (sensitivity, growth inhibition): 48 h; for Enhanced mean value: enhancement due to co-administration with TRAIL; for combine mean value (sensitivity, growth inhibition): mimetic at the dose of its row combined with TRAIL 100 ng/ml. The method, then: as §2

For experiment [10], the system named is HELA cells. Kind of experiment: Drug sensitivity MTT assay with TRAIL, HELA. More on the design: scale not given here. The settings on record: for NZJU alone mean value (sensitivity, growth inhibition): drug alone (19-100 μM; TRAIL 100 ng/ml); for NZJU alone mean value (sensitivity, growth inhibition) / combine mean value (sensitivity, growth inhibition): 48 h; for Enhanced mean value: enhancement due to co-administration with TRAIL; for combine mean value (sensitivity, growth inhibition): mimetic at the dose of its row combined with TRAIL 100 ng/ml. As for the experimental part: as §2

Experiment [11] relates to cancer cells (TRAIL resistance). Kind of experiment: Sensitization of cancer cells to TRAIL-induced apoptosis, general statements. As to conditions: summary statement. As for the experimental part: as §2
The subject of experiment [12] is SW480. Put plainly: MTT cytotoxicity assay, SW480 (colon cancer). As to conditions: Homo sapiens.

As for `CCCCCCCCNC(=O)[C@@H](NC(=O)c1cc2ccccc2o1)[C@@H](C)O` [NZJU45, N-((2S,3R)-3-hydroxy-1-oxo-1-(octylamino)butan-2-yl)-benzofuran-2-carboxamide], the IC50 was 81.3 ± 9.13 µM in experiment [1]; 52.7 ± 3.82 µM in experiment [2]; 40.8 ± 3.63 µM in experiment [3]; 47.2 ± 7.3 µM in experiment [4]; 66.5 ± 2.5 µM in experiment [5]; at least 200 µM in [6]. Moreover, the “direct anti-cancer cell activity” value in experiment [7] is recorded as “direct anti-cancer cell activity”. Further, the “NZJU alone mean value (sensitivity, growth inhibition)” value in experiment [8] amounted to 0.205; in experiment [9], 0.021; in experiment [10], 0.173. Further, the Enhanced mean value in [8] is reported as 0.309; in experiment [9], 0.382; in [10], 0.223. In addition, the results for the “combine mean value (sensitivity, growth inhibition)” value in [8], in experiment [9] and in [10] were 0.516, 0.538 and 0.432, respectively. In addition, in experiment [11], the TRAIL sensitization activity result is recorded as “TRAIL sensitization activity”.
Take `C/C=C/C=C/C(=O)N[C@H](C(=O)NCCCCCCCC)[C@@H](C)O` [NZJU41, (2E,4E)-N-((2S,3R)-3-hydroxy-1-oxo-1-(octylamino)butan-2-yl)-2,4-hexadienoic acid amide]: the IC50 in experiment [1] is 102 ± 4.07 µM; in experiment [2], 58.24 ± 0.11 µM; in [3] it was 40.4 ± 2.16 µM; in [4] it was 149 ± 3.24 µM; in experiment [5] it was 123 ± 2.5 µM; in [6], at least 200 µM. For the same molecule, the IC50 in [12] was 158 µM. The “direct anti-cancer cell activity” value in [7] was “direct anti-cancer cell activity”. Moreover, the “NZJU alone mean value (sensitivity, growth inhibition)” value stood at 0.551 in [8], 0.347 in experiment [9] and 0.362 in experiment [10]. The results for the Enhanced mean value in experiment [8], in [9] and in experiment [10] were 0.169, 0.113 and 0.421, respectively. Further, the “combine mean value (sensitivity, growth inhibition)” value in experiment [8] is 0.790; in [9], 0.625; in [10], 0.819. In addition, the TRAIL sensitization activity entry in [11] is “TRAIL sensitization activity”.
For the molecule `CCCCCCCCNC(=O)[C@@H](NC(=O)c1cccs1)[C@@H](C)O` [NZJU44, N-((2S,3R)-3-hydroxy-1-oxo-1-(octylamino)butan-2-yl)-2-thiophene carboxamide], the IC50 worked out at 149 ± 8.7 µM in experiment [1]; 32.1 ± 4.6 µM in experiment [2]; 60.9 ± 4.29 µM in experiment [3]; 72.5 ± 3.37 µM in experiment [4]; 91.85 ± 0.59 µM in experiment [5]; 136 ± 42.6 µM in experiment [6]. For the same molecule, the “direct anti-cancer cell activity” value in experiment [7] was “direct anti-cancer cell activity”. Further, the “NZJU alone mean value (sensitivity, growth inhibition)” value in experiment [8] was 0.563; in experiment [9], 0.625; in experiment [9] (listed as NZJU1g) it was “efficient at killing MCF-7 cells”; in [10], 0.218. Also, the Enhanced mean value in experiment [8] turned out to be 0.128; in experiment [9], 0.042; in experiment [10] it was 0.357. The results for the “combine mean value (sensitivity, growth inhibition)” value in [8], in experiment [9] and in experiment [10] were 0.853, 0.717 and 0.315, respectively. In addition, in experiment [11], the TRAIL sensitization activity entry is “TRAIL sensitization activity”.
Take `CCCCCCCCCCCCNC(=O)[C@@H](NC(=O)c1nccc2ccccc12)[C@@H](C)O` [NZJU30, N-((2S,3R)-3-hydroxy-1-oxo-1-(dodecylamino)butan-2-yl)-isoquinoline-1-carboxamide]: the half-maximal inhibitory concentration (IC50) in [1] turned out to be 65.7 ± 2.63 µM; in experiment [2], 62.8 ± 7.56 µM; in experiment [3], 51.93 ± 0.42 µM; in [4] it was 50.5 ± 5.65 µM; in [5] it was 56.6 ± 4.91 µM; in experiment [6] it was 65.8 ± 4.14 µM. This molecule gave a half-maximal inhibitory concentration (IC50) in experiment [12] of 58.8 µM. In experiment [7], the “direct anti-cancer cell activity” value is listed as “direct anti-cancer cell activity”. Besides, the “NZJU alone mean value (sensitivity, growth inhibition)” value in experiment [8] is −0.038; in experiment [8] (listed as NZJU2f) it was “very little sensitivity”; in experiment [9] it was 0.002; in [10], 0.057. In addition, the Enhanced mean value in experiment [8] is 0.375; in experiment [9], 0.157; in experiment [10], 0.075. Further, the “combine mean value (sensitivity, growth inhibition)” value was 0.493 in experiment [8], 0.274 in [9] and 0.195 in experiment [10]. Also, in experiment [11], the TRAIL sensitization activity entry is recorded as “TRAIL sensitization activity”.
As to `CCCCCCCCCCCCCCNC(=O)[C@@H](NC(=O)c1nccc2ccccc12)[C@@H](C)O` [NZJU31, N-((2S,3R)-3-hydroxy-1-oxo-1-(tetradecylamino)butan-2-yl)-isoquinoline-1-carboxamide], the IC50 stood at 28.6 ± 3.77 µM in experiment [1]; 23 ± 3.72 µM in [2]; 24.4 ± 3.6 µM in experiment [3]; 22.8 ± 3.94 µM in experiment [4]; 21.6 ± 2.26 µM in experiment [5]; 30.4 ± 2.09 µM in experiment [6]. In addition, the half-inhibitory concentration (IC50) in experiment [12] is 23.6 µM; in experiment [7] (all five cell lines tested, read-out: IC50 values), below 30 µM.
As for `CCCCCCCCCCCCNC(=O)[C@@H](NC(=O)c1ccccc1)[C@@H](C)O` [NZJU16, N-((2S,3R)-3-hydroxy-1-oxo-1-(dodecylamino)butan-2-yl)-benzamide], the concentration for half-maximal inhibition (IC50) is above 400 µM in experiment [1]; 41.2 ± 0.69 µM in [2]; 75.5 ± 6.24 µM in experiment [3]; 36.6 ± 8.86 µM in experiment [4]; 63.9 ± 6.01 µM in experiment [5]; at least 200 µM in experiment [6]. In experiment [12], this molecule had a 50% inhibitory concentration (IC50) of 67.2 ± 7.42 µM. In addition, the “direct anti-cancer cell activity” value in [7] is given as “direct anti-cancer cell activity”. Also, the “NZJU alone mean value (sensitivity, growth inhibition)” value in [8] is recorded as 0.376; in experiment [9], 0.479; in experiment [10], 0.264. The figures for the Enhanced mean value in experiment [8], in [9] and in [10] were 0.304, 0.197 and 0.298, respectively. In addition, the “combine mean value (sensitivity, growth inhibition)” value in experiment [8] was determined as 0.607; in [9], 0.741; in experiment [10], 0.597. Moreover, in [11], the TRAIL sensitization activity result is “TRAIL sensitization activity”.
As for `CCCCCCCCCCCCNC(=O)[C@@H](NC(=O)c1cccs1)[C@@H](C)O` [NZJU33, N-((2S,3R)-3-hydroxy-1-oxo-1-(dodecylamino)butan-2-yl)-2-thiophene carboxamide], the IC50 in experiment [1] was 30.1 ± 3.84 µM; in experiment [2], 16.6 ± 2.12 µM; in experiment [3] it was 23.3 ± 3.33 µM; in experiment [4] it was 30.4 ± 2.8 µM; in experiment [5], 23.9 ± 3.65 µM; in experiment [6] it was 29.2 ± 0.57 µM. The same molecule had a concentration for half-maximal inhibition (IC50) in experiment [12] of 30.2 µM. For the same molecule, in experiment [7], the “direct anti-cancer cell activity” value was “direct anti-cancer cell activity”.
On to `CCCCCCCCCCCCCCCCCCNC(=O)[C@@H](NC(=O)Cc1c[nH]c2ccccc12)[C@@H](C)O` [NZJU29, N-((2S,3R)-3-hydroxy-1-oxo-1-(octadecylamino)butan-2-yl)-indole-3-acetic acid amide], for which the IC50 was 57.6 ± 2.69 µM in experiment [1]; 31.8 ± 1.93 µM in experiment [2]; 54.9 ± 3.9 µM in [3]; 37.3 ± 1.82 µM in experiment [4]; 65.8 ± 6.45 µM in experiment [5]; 103 ± 7.48 µM in [6]. Further, half-maximal inhibition in experiment [12] (IC50) was put at 60 µM. The “direct anti-cancer cell activity” value in [7] is listed as “direct anti-cancer cell activity”.

B1: TRAIL: TNF-related apoptosis-inducing ligand, a death receptor ligand used as apoptosis-inducing agent (protein, UniProt P50591 1-281, looked up)
Tumor necrosis factor ligand …: MAMMEVQGGPSLGQTCVLIVIFTVLLQSLCVAVTYVYFTNELKQMQDKYSKSGIACFLKEDDSYWDPNDEESMNSPCWQVKWQLRQLVRKMILRTSEETISTVQEKQQNISPLVRERGPQRVAAHITGTRGRSNTLSSPNSKNEKALGRKINSWESSRSGHSFLSNLHLRNGELVIHEKGFYYIYSQTYFRFQEEIKENTKNDKQMVQYIYKYTSYPDPILLMKSARNSCWSKDAEYGLYSIYQGGIFELKENDRIFVSVTNEHLIDMDHEASFFGAFLVG
For the molecule B1, the “NZJU alone mean value (sensitivity, growth inhibition)” value in [9] came to 0.118; in experiment [10] it was 0.036.

Usually IC50 stands for the concentration that inhibits the measured activity by half.
